pIC50: −log10 of the molar value.
Legend:
[1] = High sucrose diet DIO study, plasma cholesterol and triglycerides; format: in vivo, Sprague Dawley rats; details: for Plasma Cholesterol / Plasma Triglycerides: high sucrose-fed DIO rats, mean ± SEM, n=14
Protocol: The compounds of the present invention are readily adapted to clinical use as anti-obesity agents, insulin sensitizing agents, hyperinsulinemia-reversing agents, and hepatic steatosis-reversing agents. Such activity was determined by assessing the amount of test compound that reduces body weight and percentage body fat, reduces plasma insulin levels, blunts the rise and/or accelerates the reduction in plasma insulin and glucose levels in response to an oral glucose challenge, and reduces hepatic lipid content relative to a control vehicle without test compound in mammals. Sprague Dawley rats were fed either chow, a diet high in sucrose (for example AIN76A rodent diet; Research diets Inc. Cat #10001) or a diet high in fat (for example Research diets Inc. Cat #12451), for from 3-8 weeks prior to and during test compound administration.
For example, after a 3-8 week period of ad libitum feeding of either a chow, high-fat, or high-sucrose diet, animals that continued to receive the diet were treated for 1-8 weeks with test compound administered either by oral gavage in water or saline or water or saline containing 0.5% methylcelluose using a Q.D., B.I.D, or T.I.D. dosing regimen. At various times during study and at sacrifice (by CO2 asphyxiation), blood was collected either from the tail vein of an unanesthesized rat or from the vena cava of animals at sacrifice into heparin or EDTA containing tubes for centrifugal separation to prepare plasma. Plasma levels of parameters of lipid and carbohydrate metabolism known by those skilled in the art to be altered coincident with anti-obesity, insulin sensitizing, hyperinsulinemia-reversing, and hepatic steatosis-reversing actions, including but not limited to cholesterol and triglycerides, glucose, insulin, leptin, adiponectin, ketone bodies, free fatty acids, and glycerol, are measured using methods known to those skilled in the art.
The anti-obesity, insulin sensitizing, hyperinsulinemia-reversing, and hepatic steatosis-reversing potential of compounds of the present invention are exemplified through the actions of example compound I-181. […] Results of the reduction in total body weight measurements after treatment of high fat diet-fed DIO rats with compound I-181 are shown in FIG. 11. The degree of body weight reduction paralleled plasma drug levels measured at the end of the study. […] The plasma leptin levels for animals receiving the standard chow diet (lean controls) were also evaluated to determine the extent of parameter normalization produced by compound I-181. […] Results of the reduction in plasma insulin measurements after treatment of high fat diet-fed DIO rats with compound I-181 are shown in FIG. 12. […] Results of the reduction in hepatic triglyceride and cholesterol measurements after treatment of high fat diet-fed DIO rats with compound I-181 are shown in FIG. 13. […] Results of diet-induced obesity studies measuring the effect of compound I-181 on plasma cholesterol and plasma triglycerides are shown in Table 4 below. Data shown are mean values for n=14 animals per group±SEM.

[2] = Respiratory Quotient Measurement Assay; format: in vivo, Sprague-Dawley rats; details: rats, FIG. 9 and FIG. 10
Protocol: Compounds of the present invention were also assayed in a Respiratory Quotient Measurement Assay, as described by Harwood et al. “Isozyme-nonselective N-Substituted Bipiperidylcarboxamide Acetyl-CoA Carboxylase Inhibitors Reduce Tissue Malonyl-CoA Concentrations, Inhibit Fatty Acid Synthesis, and Increase Fatty Acid Oxidation in Cultured Cells and in Experimental Animals” Journal of Biological Chemistry (2008) 278, 37099-37111. An exemplary procedure for the assay, which measures the ratio of carbon dioxide production to oxygen consumption in rats, follows.
Male Sprague-Dawley rats (350-400 g) housed under standard laboratory conditions, either fed chow, fasted, or fasted and refed a diet high in sucrose for 2 days prior to experimentation were removed from their home cages, weighed, and placed into sealed chambers (43″43″10 cm) of the calorimeter (one rat per chamber). The chambers were placed in activity monitors. The calorimeter was calibrated before each use, air flow rate was adjusted to 1.6 liters/min, and the system settling and sampling times were set to 60 and 15 s, respectively. Base-line oxygen consumption, CO2 production, and ambulatory activity were measured every 10 min for up to 3 h before treatment. […]

ACC1 = ACC1 (Homo sapiens, UniProt Q13085); assay: In vitro ACC1 inhibition assay (ADP-Glo); format: biochemical
Summary of the method: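 Enzyme (human ACC1 or ACC2) and compound, serially diluted 1:3 over 11 points from a 600 uM DMSO stock, were preincubated 15 min before substrate addition.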

SMILES: COc1ccccc1[C@H](Cn1c(=O)n(C(C)(C)C(=O)O)c(=O)c2c(C)c(-c3ncco3)sc21)OC1CCOCC1 [I-181, 2-[1-[2-(2-methoxyphenyl)-2-(oxan-4-yloxy)ethyl]-5-methyl-6-(1,3-oxazol-2-yl)-2,4-dioxo-1H,2H,3H,4H-thieno[2,3-d]pyrimidin-3-yl]-2-methylpropanoic acid]
- plasma cholesterol and triglyceride levels ([1]; high sucrose diet rats, 3, 10, 30 mg/kg once daily oral gavage, two weeks): dose-dependent reduction in plasma cholesterol and triglyceride levels
- Plasma Cholesterol ([1]; 3 mg/kg, Day 7): 94 ± 3 mg/dL
- Plasma Triglycerides ([1]; 3 mg/kg, Day 7): 154 ± 15 mg/dL
- Plasma Cholesterol ([1]; 3 mg/kg, Day 14): 96 ± 3 mg/dL
- Plasma Triglycerides ([1]; 3 mg/kg, Day 14): 171 ± 16 mg/dL
- Plasma Cholesterol ([1]; 3 mg/kg, Prebleed): 96 ± 2 mg/dL
- Plasma Triglycerides ([1]; 3 mg/kg, Prebleed): 144 ± 12 mg/dL
- Plasma Cholesterol ([1]; 10 mg/kg, Day 7): 82 ± 3 mg/dL
- Plasma Triglycerides ([1]; 10 mg/kg, Day 7): 139 ± 10 mg/dL
- Plasma Cholesterol ([1]; 10 mg/kg, Day 14): 87 ± 3 mg/dL
- Plasma Triglycerides ([1]; 10 mg/kg, Day 14): 165 ± 15 mg/dL
- Plasma Cholesterol ([1]; 10 mg/kg, Prebleed): 96 ± 3 mg/dL
- Plasma Triglycerides ([1]; 10 mg/kg, Prebleed): 183 ± 18 mg/dL
- Plasma Cholesterol ([1]; 30 mg/kg, Day 7): 78 ± 3 mg/dL
- Plasma Triglycerides ([1]; 30 mg/kg, Day 7): 116 ± 9 mg/dL
- Plasma Cholesterol ([1]; 30 mg/kg, Day 14): 78 ± 2 mg/dL
- Plasma Triglycerides ([1]; 30 mg/kg, Day 14): 118 ± 14 mg/dL
- Plasma Cholesterol ([1]; 30 mg/kg, Prebleed): 99 ± 3 mg/dL
- Plasma Triglycerides ([1]; 30 mg/kg, Prebleed): 166 ± 13 mg/dL
- RQ relative to baseline [2]: 80-90 % of its baseline value
- RQ, dose dependence ([2]; doses of 3, 10, 30 and 100 mg/kg): dose-dependent decreases in RQ
- pIC50 (ACC1): > 7.00

— patent US9453026B2, “ACC inhibitors and uses thereof” (Gilead Apollo, Inc., priority 2011, dated 2016)
